Measurements taken from patent US7781580B2, “Stilbene derivatives as new cancer therapeutic agents” (Virginia Commonwealth University, priority 2007, dated 2010).
Structures can show the parent of a compound that is named as a salt. Where two headings read alike, the source gives them in different places. One block for each compound: values may come before it.

Experiments:
[1] = test system: SNU423 hepatocellular carcinoma cells; experiment: Alamar Blue cell growth inhibition, SNU423; type: cell-based
Description: Cell growth was measured by Alamar Blue™ staining and the OD absorbance at 570 and 600 nm was determined by a microplate reader. The percentage of cell growth inhibition was calculated and compared with the control cells that were treated with 0.1% DMSO, the vehicle for the stilbene compounds.
(§1) Various cancer cell lines were grown in 96-well plates for drug sensitivity assays. Once cells achieved 50% confluence, the incubation media was changed to the same cell growth media with different concentrations of the tested compounds or vehicle alone. Cells were then incubated for 48 hours before the cell growth inhibition study. To determine the degree of cell growth inhibition, 1/10 volume of Alamar Blue™ solution was added to each well and optical density (OD) at 570 and 600 nm was determined. The percentage of growth inhibition was calculated according to the manufacturer's formula as follows: The percentage of growth is [(117216×A570)−(80586×A600)]/[(117216×A^o570)−(80586×A^o600)]×100. In this formula, A570 is the absorbance of the treated samples at 570 nm; A600 is the absorbance of the treated samples at 600 nm; A^o570 is the absorbance of the […] samples at 570 nm; and A^o600 is the absorbance of the untreated samples at 600 nm. The two constants, 117216 and 80586, are the extinction coefficients of Alamar Blue™ at 570 and 600 nm respectively. Each concentration was repeated in triplicate to minimize the error.
(§2) We first tested the cytotoxic effect of various stilbene derivatives for their in vitro efficacy of suppressing tumor cell proliferation. Cells were first plated in 96-well plates at 50% confluence and treated with 0, 0.01, 0.03, 0.1, 0.3, 1.0, 3.0, 10 μM concentrations of stilbene derivatives for 48 hours in triplicate. Alamar Blue™ reagent was added into each well at 1/10 volume and incubated for 2 hours before quantification of the absorbance at 570 and 600 nm.

[2] = test system: MDA-MB231 breast cancer cells; experiment: Alamar Blue cell growth inhibition, MDA-MB231; type: cell-based; conditions: Homo sapiens, MDA-MB-231; MDA-MB231
Description: Cell growth was measured by Alamar Blue™ staining and the percentage of cell growth inhibition was calculated and compared with control cells that were treated with 0.1% DMSO, the vehicles for the stilbene compounds.
as §1, §2

[3] = test system: MiaPaCa2 pancreatic cancer cells; experiment: Alamar Blue cell growth inhibition, MiaPaCa2; type: cell-based; conditions: Homo sapiens, MIA PaCa-2; MiaPaCa2
Description: as §1, §2

[4] = test system: SKOV3 ovarian cancer cells; experiment: Alamar Blue cell growth inhibition, SKOV3; type: cell-based; conditions: for effective / active concentration: SKOV3, 48 hours
Description: Cells were incubated with various concentrations of the compounds for 48 hours. Cell growth was measured by Alamar Blue™ staining and the percentage of cell growth inhibition was calculated and compared with the control cells that were treated with 0.1% DMSO, the vehicle for the stilbene compounds.
as §1

[5] = in vivo; cited from earlier work
Tubulin (>99% pure) = experiment: tubulin polymerization assay (OD 340 nm); type: biochemical; conditions: OD340 nm; nocodazole and paclitaxel 10 μM
Description: FIG. 3a-d. Stilbenes inhibit tubulin polymerization. (a) Effect of stilbene 4a. Pure tubulin was incubated with various concentrations of stilbene 4a, 10 μM nocodazole, and 10 μM paclitaxel in the polymerization buffer. The OD at 340 nm was monitored every minute by SpectraMAX 250 and plotted against time. (b) Effect of stilbene 4c. (c) Comparison of same concentrations of stilbenes 4a, 4a trans, 4c and 4c trans with control. […] Tubulin was incubated with [^3H]-colchicine and various concentrations of different stilbenes for 20 min. Tubulin was then separated from the unbound [^3H]-colchicine by Microcon-30 and washed three times with PBS. The radioactivity of the tubulin was counted. […] All experiments were done in triplicates.
The tubulin polymerization assay kit was purchased from Cytoskeleton (Denver, Colo.). Tubulin (>99% pure) was mixed with general tubulin buffer (GTB, 80 mM PIPES pH 6.9, 2 mM MgCl2, 0.5 mM EGTA, and 1 mM GTP) in a 96-well plate at 37° C. Absorbance at 340 nm was measured every 1 min for 60 min by SpectraMAX 250 (Molecular Devices, Sunnyville, Calif.). Analysis of the results was performed by SoftMAX Pro version 1.2.0 from the same company.

[6] = test system: UCI101 ovarian cancer cells; experiment: Western blot of signal transduction events, UCI101; type: cell-based; conditions: for phosphorylation of Chk1: 36 hours
Description: All these agents are microtubule interfering agents but with different binding sites. Cells were harvested at 0, 4, 8, 16 and 36 hours after drug treatment for Western blot analysis. […] Phosphorylation of both Cdc25C and Cdc2 disappeared after 16 hours and slightly recovered at 36 hours. […] Akt phosphorylation decreased after 16 hours of treatment.
In order to understand the mechanism of resistance of stilbenes, various signal transduction pathways were investigated to examine how cells respond to stilbene treatment. UCI101 ovarian cancer cells were treated with stilbenes 4a, 4c or paclitaxel (Taxol) at 0.1 μM for 0, 4, 8, 16 and 36 hours. Cells were harvested for Western blotting. Changes in the kinases involved in cell cycle progression from G2-M transition were first determined in Cdc2, Cdc25c, and mitotic spindle check point regulator BubR1. […] 36 hours after treatment, rephosphorylation of Cdc2 was observed. […] The higher molecular weight isomer of Cdc25c, the mitotic form, increased at 16 and 36 hours. […] A similar study was then performed with other microtubule interfering agents such as combretastatin A4, 13a and vincristine for comparison. A similar trend was observed among these three microtubule interfering agents (FIG. 18).

[7] = acute toxicity in dose escalating study; type: in vivo, mice
Description: Acute toxicity in dose escalating study: We investigated the efficacy of stilbene 4a in vivo using mouse xenograft model. First we determined the maximal tolerated dose of stilbene 4a since it has a higher potency in vitro. […] Subsequently mice fully recovered 30 min after injection.

HL60 cells = conditions: cited from earlier work; for IC50: read-out: IC50, induction of HL60 apoptosis
[8] = test system: UCI101 ovarian cancer cells; experiment: Alamar Blue cell growth inhibition, UCI101; type: cell-based; conditions: UCI101, 48 hours
Description: Cell growth was measured by AlamarBlue™ staining and the percentage of cell growth inhibition was calculated and compared with the control cells that were treated with 0.1% DMSO, the vehicles for the stilbene compounds.
Cells were treated with the tested drug for 2 days before analysis of cell growth by Alamar Blue™ staining. Cells treated with 0.1% DMSO were used as control and set as 100%.
(a) In vitro sensitivity of UCI101 cells toward three potential stilbene prodrugs, 5a-c, was tested in 96-well plates using Alamar Blue™ assays to determine cell growth inhibition. […] (b) 5b induces cell cycle change and apoptosis in UCI101 cells. Cells were incubated with 5b at 1, 3, 10 μM for 16 hours followed by PI staining and flow cytometry analysis. A subG0/1 population, representing apoptotic cells, appeared along with a decrease of the G1/G2 ratio after cells were treated with 3 μM 5b. Higher concentration (10 μM) of 5b completely killed cells, as was the case with stilbene 4a at […]. (c) Cells treated with stilbene 4a and 5b were stained with phospho-histone 3B, a mitotic marker. The positive signals of phospho-histone 3B were shown in green and nuclei were stained with DAPI in blue. […] (d) In vivo efficacy of 5b compared with stilbene 4a. Nude mice were injected with UCI101 ovarian cancer cells and treated with 7 doses of 5b,c or stilbene 4a every 2-3 days. Tumor volume was calculated and plotted against days.
as §1, §2

MDA-MB231 cells = experiment: immunofluorescent staining of tubulin, MDA-MB231; type: cell-based; conditions: CA4 10 nM, stilbene 4a 100 nM, vincristine 100 nM, 5b 3 μM; 16 hours
Excerpt: Nuclei were stained with 4′,6-diamidino-2-phenylindole (DAPI). Control cells show the reticular pattern of the microtubule network.

- IC50 ([1]; Homo sapiens, SNU-423, 48 h, read-out: IC50 (50% growth inhibition), SNU423, 48 hours): ≤ 300 nM
- IC50 ([1]; read-out: IC50 (50% growth inhibition), SNU423, 48 hours, hydrochloride): 300 nM
- IC50 [2]: 80 nM
- IC50 [3]: 300 nM
SMILES: COc1cc(/C=C\c2ccc(OC)c(N)c2)cc(OCCO)c1 [10a, (Z)-2-{3-[2-(3-Amino-4-methoxy-phenyl)-vinyl]-5-methoxy-phenoxy}-ethanol, hydrochloride]
- activity ([4]; SKOV3): also effective
- effective / active concentration [4]: 0.1 µM

SMILES: COc1cc2c(c(OC)c1OC)-c1ccc(OP(=O)(O)O)cc1[C@@H](NC(C)=O)CC2 [ZD6126]
- toxicity in phase I clinical trials [5]: cardiac toxicity (such as decreasing left ventricular ejection fraction) and dose limiting toxicity were observed

SMILES: CC(=O)O[C@H]1C(=O)[C@@]2(C)[C@H]([C@H](OC(=O)c3ccccc3)[C@]3(O)C[C@H](OC(=O)[C@H](O)[C@@H](NC(=O)c4ccccc4)c4ccccc4)C(C)=C1C3(C)C)[C@]1(OC(C)=O)CO[C@@H]1C[C@@H]2O [paclitaxel, reference compound]
- effect on tubulin polymerization (Tubulin (>99% pure)): enhanced
- phosphorylation of Cdc2 at Tyr15 ([6]; 0.1 μM, 16 hours): decreased dramatically
- phosphorylation of Chk1 [6]: do not cause more phosphorylation of Chk1

SMILES: COc1cc(/C=C\c2ccc(OC)c(N)c2)cc(OC)c1 [stilbene 5c, cis-3,4′,5-trimethoxy-3′-aminostilbene]
- acute toxicity at 6 or 33 mg/kg ([7]; 6 or 33 mg/kg intravenously): did not cause any acute toxicity
- acute toxicity at 72 and 97 mg/kg ([7]; 72 and 97 mg/kg intravenously): transient weakness as shown by dragging feet and sluggish movement
- time to full recovery after injection ([7]; 72 and 97 mg/kg intravenously): 30 min
- cytotoxicity under overexpression of MDR gene (HL60 cells; Roberti et al.): not affected by overexpression of multiple-drug resistant (MDR) gene
- IC50 (HL60 cells; Roberti et al.): 30 nM

SMILES: COc1cc(/C=C\c2ccc(OC)c(O)c2)cc(OC)c1 [stilbene 6c, cis-3,4′,5-trimethoxy-3′-hydroxystilbene]
- cytotoxicity under overexpression of MDR gene (HL60 cells): not affected by overexpression of multiple-drug resistant (MDR) gene
- IC50 (HL60 cells; Roberti et al.): 30 nM

- IC50 ([4]; Homo sapiens, SK-OV-3, SKOV, read-out: IC50): 50 to 100 nM
SMILES: CC[C@]1(O)C[C@H]2CN(CCc3c([nH]c4ccccc34)[C@@](C(=O)OC)(c3cc4c(cc3OC)N(C=O)[C@H]3[C@@](O)(C(=O)OC)[C@H](OC(C)=O)[C@]5(CC)C=CCN6CC[C@]43[C@@H]65)C2)C1 [vincristine, reference compound]
- relative potency ([1]; SNU423): equivalent
- relative potency / activity [8]: about equal in their potency
- effective / active concentration [4]: 0.1 µM
- microtubule pattern (MDA-MB231 cells): fine granular pattern without formation of microtubules
- phosphorylation of Stat3 ([6]; 0.1 μM): more pronounced
- phosphorylation of Chk1 [6]: do not cause more phosphorylation of Chk1
